Reference: patent US11053205B2, “Phenazine derivatives as antimicrobial agents” (University of Florida Research Foundation, Incorporated, priority 2017, dated 2021)
Converted amounts (≈) assume the structure as drawn. “And” between values parts separate entries of the source, which are not always exact repeats. Equal values may be shown once. Read-outs that look alike come from different tables or passages of the source. Marks after values point to notes of the source that are not given here.

Columns and labels:
[1] = system: MRSE 35984 biofilms; test: Calgary Biofilm Device (CBD) assay, MBC/MBEC; settings: for MRSE 35984 MBEC / MRSE 35984 MBC: CBD; for MRSE 35984 MBEC: biofilm eradication; for MRSE 35984 MBC: planktonic killing; for MBC: Staphylococcus epidermidis, MRSE, read-out: MRSE 35984 MBC
[2] = system: MRSA BAA-1707 biofilms; test: Calgary Biofilm Device (CBD) assay, MBC/MBEC; settings: for MRSA BAA-1707 MBC: planktonic killing; for MBC: Staphylococcus aureus, BAA1707|MRSA, read-out: MRSA BAA-1707 MBC, CBD, planktonic killing
[3] = system: VRE 700221 biofilms; test: Calgary Biofilm Device (CBD) assay, MBC/MBEC; settings: for VRE 700221 MBC: planktonic killing; for MBC: Enterococcus, VRE, read-out: VRE 700221 MBC
[4] = system: MRSE 35984; test: MIC, broth microdilution (CLSI); settings: for MRSE 35984 MIC: 16 to 18 hours at 37° C.; for MIC: Staphylococcus epidermidis, MRSE, read-out: MRSE 35984 MIC, 16 to 18 hours at 37° C.
[5] = system: MRSA BAA-1707; test: MIC, broth microdilution (CLSI); settings: 0.10 = lowest concentration tested; for MRSA BAA-1707 MIC: 16 to 18 hours at 37° C.
[6] = system: human red blood cells
[7] = system: MRSA-2; test: MIC, broth microdilution (CLSI); settings: for MRSA-2 MIC: 16 to 18 hours at 37° C.; for MIC: Staphylococcus aureus, MRSA, read-out: MRSA-2 MIC
[8] = system: VRE 700221; test: MIC, broth microdilution (CLSI); settings: 16 to 18 hours at 37° C.
[9] = system: M. tuberculosis H37Ra (ATCC 25177); test: MIC assay for Mycobacterium tuberculosis; assay type: cell-based; settings: read-out: MtB H37Ra MIC
Experimental: (§1) The culture was then diluted with fresh medium until an OD600 of 0.01 was reached. […] The final DMSO concentration was maintained at 0.5%. […] Three rows were reserved for each compound. […] OD600 absorbance was recorded using SPECTRAMAX M5 (Molecular Devices). Data obtained from three independent experiments were analyzed using Excel.
as §1, with “SpectraMax” for “SPECTRAMAX”

[10] = system: HeLa cells
[11] = system: MRSA-2 biofilms; test: Calgary Biofilm Device (CBD) assay, MBC/MBEC; settings: for MRSA-2 MBEC: CBD, biofilm eradication; for MBC: Staphylococcus aureus, MRSA, read-out: MRSA-2 MBC
[12] = system: MRSA-1; test: MIC, broth microdilution (CLSI)
[13] = system: MRSA BAA-1707; test: Metal(II)-cation co-treatment MIC assay; assay type: cell-based; settings: Staphylococcus aureus
[14] = Mycobacterium tuberculosis, 168 h, seven days at 37° C.

CCN(CC)c1ccc2nc3c(O)c(Br)cc(Br)c3nc2c1Br [Compound 64A]
MRSE 35984 MBEC [1]: 6.25 µM | MRSE 35984 MBC [1]: 9.38 µM | MRSA BAA-1707 MBC ([2]; CBD): 9.38 µM | VRE 700221 MBC ([3]; CBD): 2.35 µM | MRSE 35984 MIC [4]: 0.1^b μM | MRSA BAA-1707 MIC [5]: 0.15^a μM | Hemolysis at 200 μM [6]: ≤1% | MRSA-2 MIC [7]: 0.3^a μM | VRE 700221 MIC [8]: 0.3^a μM

Cc1ccc2nc3c(O)ccc(Br)c3nc2c1 [Compound 66A]
MRSE 35984 MIC [4]: 12.5 µM | MRSA BAA-1707 MIC [5]: 12.5 ^ μM | MIC [9]: 25 µM (≈ 7.23 µg/mL) | VRE 700221 MIC [8]: 25 µM

CCc1ccc2nc3c(O)ccc(Br)c3nc2c1 [Compound 67A]
MRSE 35984 MIC [4]: 9.38^a μM | IC50 [10]: > 100 µM | MIC [9]: 25 µM (≈ 7.58 µg/mL) | VRE 700221 MIC [8]: 12.5 µM

Cc1cc(C)c2nc3c(Br)ccc(O)c3nc2c1 [Compound 68A]
MRSE 35984 MIC [4]: 2.35^a μM | MRSA BAA-1707 MIC [5]: 4.69^a μM | IC50 [10]: > 100 µM | MIC [9]: 50 µM (≈ 15.2 µg/mL) | VRE 700221 MIC [8]: 9.38^a μM

Oc1ccc(Br)c2nc3cc(Cl)ccc3nc12 [Compound 69A]
MRSE 35984 MIC [4]: 18.8^a μM | IC50 [10]: > 100 µM | MIC [9]: 6.25 µM (≈ 1.93 µg/mL) | VRE 700221 MIC [8]: 25 µM

CS(=O)(=O)N1CCN(C(=O)Oc2c(Br)cc(Br)c3nc4ccccc4nc23)C1=O [Compound 76A]
MRSE 35984 MBEC [1]: 37.5 µM | MRSE 35984 MBC [1]: 18.8 µM | MRSA BAA-1707 MBEC ([2]; CBD, biofilm eradication): 75 µM | MRSA BAA-1707 MBC ([2]; CBD): 37.5 µM | VRE 700221 MBEC ([3]; CBD, biofilm eradication): 9.38^a/9.38^a μM | VRE 700221 MBC ([3]; CBD): 9.38^a/9.38^a μM | MRSE 35984 MIC [4]: 1.56 µM | Hemolysis at 200 μM [6]: ≤1% | IC50 [10]: > 100 µM | VRE 700221 MIC [8]: 3.13 µM

O=C(O)CN(CCN(CC(=O)O)CC(=O)O)CC(=O)O [EDTA, ethylenediaminetetraacetic acid, reference compound]
MRSE 35984 MBEC [1]: > 2000 µM | MRSE 35984 MBC [1]: 1000 µM | MBC [1]: 1000 µM (≈ 292 µg/mL) | MRSA BAA-1707 MBC ([2]; CBD): >2000 />2000 μM | MBC [2]: > 2000 µM | MBC [3]: > 2000 µM | MRSA-2 MBEC [11]: 2000/>2000 μM | MBC [11]: 2000 µM (≈ 584 µg/mL)

Oc1c(Br)cc(Br)c2nc3c(O)c(Br)cc(Br)c3nc12 [HP 1-15]
MRSA-1 MIC ([12]; 16 to 18 hours at 37° C.): >50 ^ μM | MRSE 35984 MIC [4]: >50 µM | MRSA BAA-1707 MIC [5]: >50 µM | MRSA-2 MIC [7]: >50 µM | VRE 700221 MIC [8]: >50 µM

Oc1c(Br)cc(Br)c2nc3ccc(Cl)cc3nc12 [HP 1-22]
Hemolysis at 200 μM ([6]; human, 1 h, 200 μM, pH 7.2): ≤1% | MIC [9, 14]: 6.25 µM and 2.4 µg/mL

COCCOCCOCCOCCOC(=O)Oc1c(Br)cc(Br)c2nc3ccccc3nc12 [HP 1-24]
Hemolysis at 200 μM ([6]; human, 1 h, 200 μM, pH 7.2): 2.4% | HeLa cell cytotoxicity at 100 μM [10]: no HeLa cell cytotoxicity | MIC [9, 14]: 25 µM (≈ 14.7 µg/mL)

CO[C@H]1/C=C/O[C@@]2(C)Oc3c(C)c(O)c4c(O)c(c(/C=N/N5CCN(C)CC5)c(O)c4c3C2=O)NC(=O)/C(C)=C\C=C\[C@H](C)[C@H](O)[C@@H](C)[C@@H](O)[C@@H](C)[C@H](OC(C)=O)[C@@H]1C [Rifampin, reference compound]
MBC [1]: 3 µM (≈ 2.47 µg/mL) | MIC [4]: 0.1 µM (≈ 0.0823 µg/mL) | MRSA-2 MBEC [11]: 46.9 µM | MBC [11]: 2 µM (≈ 1.65 µg/mL) | MIC [7]: 0.1 µM (≈ 0.0823 µg/mL)

c1ccc(CN(CCN(Cc2ccccn2)Cc2ccccn2)Cc2ccccn2)nc1 [TPEN, N,N,N′,N′-tetrakis(2-pyridylmethyl)ethane-1,2-diamine, reference compound]
MRSA BAA-1707 MBC ([2]; CBD): 250 µM | MBC [2]: 375 µM (≈ 159 µg/mL) | MIC ([13]; copper(II) at 200 μM, read-out: MIC w/ Cu2+): 500 µM | MIC ([13]; iron(II) at 200 μM, read-out: MIC w/ Fe2+): 125 µM | MIC ([13]; magnesium(II) at 200 μM, read-out: MIC w/ Mg2+): 62.5 µM | MIC ([13]; no metal(II) cation added, read-out: MIC): 46.9 µM | MIC ([13]; zinc(II) at 200 μM, read-out: MIC w/ Zn2+): 250 µM | MBC [3]: 188 µM (≈ 79.8 µg/mL) | MIC ([12]; Staphylococcus aureus, MRSA, read-out: MRSA-1 MIC): 75 µM (≈ 31.8 µg/mL) | MIC [4]: 12.5 µM (≈ 5.31 µg/mL) | MRSA BAA-1707 MIC [5]: 50 ^ μM | MIC ([5]; Staphylococcus aureus, BAA1707|MRSA, read-out: MRSA BAA-1707 MIC, 16 to 18 hours at 37° C.): 46.9 µM (≈ 19.9 µg/mL) | Hemolysis at 200 μM ([6]; human, 1 h, 200 μM, pH 7.2): ≤1% | MIC [7]: 50 µM (≈ 21.2 µg/mL)

[H]/N=C(/N)N[C@H]1[C@H](O)[C@@H](O)[C@H](O[C@@H]2O[C@@H](C)[C@](O)(C=O)[C@H]2O[C@@H]2O[C@@H](CO)[C@H](O)[C@@H](O)[C@@H]2NC)[C@@H](N/C(N)=N\[H])[C@@H]1O [streptomycin, reference compound]
MIC ([9]; Mycobacterium tuberculosis, 168 h): 1.32 µM (≈ 0.768 µg/mL)
